Experimental findings from patent publication US11731977B2, “SGC stimulators” (Cyclerion Therapeutics, Inc., priority 2016, dated 2023) are described below.

For one data set, the target named is T1, sGC enzyme (Homo sapiens, UniProt Q02108+Q02153).
T1 construct: sGC enzyme activity values in HEK cells, determined by the GloSensor assay; host or cells: HEK293 cells stably expressing GloSensor 40F cGMP biosensor
T1 sequence (Q02153 1-619): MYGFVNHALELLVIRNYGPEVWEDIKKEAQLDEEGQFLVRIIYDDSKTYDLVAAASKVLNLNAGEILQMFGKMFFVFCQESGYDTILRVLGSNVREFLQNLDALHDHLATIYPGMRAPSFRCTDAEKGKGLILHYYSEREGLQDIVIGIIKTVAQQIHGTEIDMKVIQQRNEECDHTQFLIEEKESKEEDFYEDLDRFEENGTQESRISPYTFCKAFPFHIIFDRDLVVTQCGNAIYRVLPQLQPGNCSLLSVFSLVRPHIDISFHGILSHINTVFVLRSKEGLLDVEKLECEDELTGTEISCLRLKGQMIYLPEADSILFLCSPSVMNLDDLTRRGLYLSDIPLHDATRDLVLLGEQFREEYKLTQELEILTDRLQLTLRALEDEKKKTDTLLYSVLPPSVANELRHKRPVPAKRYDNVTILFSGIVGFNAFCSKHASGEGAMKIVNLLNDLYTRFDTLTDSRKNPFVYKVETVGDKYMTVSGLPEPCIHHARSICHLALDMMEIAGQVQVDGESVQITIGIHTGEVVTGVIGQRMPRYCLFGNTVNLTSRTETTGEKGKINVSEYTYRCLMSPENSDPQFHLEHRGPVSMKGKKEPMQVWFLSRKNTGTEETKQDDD
T1 sequence (Q02108 1-690): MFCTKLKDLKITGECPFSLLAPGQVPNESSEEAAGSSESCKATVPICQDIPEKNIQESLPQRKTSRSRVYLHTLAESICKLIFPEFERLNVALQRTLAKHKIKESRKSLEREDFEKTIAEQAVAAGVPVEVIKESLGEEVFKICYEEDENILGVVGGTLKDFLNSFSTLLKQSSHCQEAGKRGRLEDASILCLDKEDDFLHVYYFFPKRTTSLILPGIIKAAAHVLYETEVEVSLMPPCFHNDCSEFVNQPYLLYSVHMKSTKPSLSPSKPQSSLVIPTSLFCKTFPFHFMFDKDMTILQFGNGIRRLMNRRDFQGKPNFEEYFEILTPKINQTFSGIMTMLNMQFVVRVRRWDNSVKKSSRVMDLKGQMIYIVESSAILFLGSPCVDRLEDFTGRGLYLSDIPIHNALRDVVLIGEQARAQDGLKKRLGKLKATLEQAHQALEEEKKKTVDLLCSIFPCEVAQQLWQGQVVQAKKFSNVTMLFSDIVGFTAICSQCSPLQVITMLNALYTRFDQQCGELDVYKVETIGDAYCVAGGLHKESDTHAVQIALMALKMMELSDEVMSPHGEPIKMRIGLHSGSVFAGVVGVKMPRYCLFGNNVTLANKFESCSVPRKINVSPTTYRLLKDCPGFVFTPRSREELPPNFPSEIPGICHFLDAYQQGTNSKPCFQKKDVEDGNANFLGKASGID
Put plainly: cGMP GloSensor cell-based assay, synergy with NO at varied DETA-NO (Example 2b). The conditions noted are these: for EC50: HEK293 GloSensor cells, read-out: EC50 (Absolute EC50). On the procedure: HEK293 cells expressing GloSensor™ 40F cGMP (Part No: CS182801, Promega) were used to evaluate the synergy of the test compounds with NO. Multiple assays where run in which the concentrations of test compound also well as the concentration of Diethylenetriamine NONOate (DETA-NONOate) were varied to determine the synergy of the test compound with NO. Test compounds and Diethylenetriamine NONOate (DETA-NONOate or DETA-NO) were diluted to 3 mM (20×) in serum-free CO2 independent medium and serially diluted at 4× dilutions to create 5× dose curve from which 10 ul was added to the wells (x μM concentration for test compound solution and y μM concentration for DETA-NO solution; wherein x is one of the following final concentrations: 30000 nM, 7500 nM, 1875 nM, 468.8 nM, 117.2 nM, 29.29 nM, 7.320 nM, 1.830 nM, 0.460 nM, 0.114 nM, and 0.029 nM and y is one of the following final concentrations: 30 μM, 10 μM, 3.33 μM 1.11 μM, and 0 μM).
Following the analysis as described above, Table 2b summarizes results obtained for Compound I-1 with the various DETA-NO amount in this assay.

A short description of data set [1]: Rat cerebrospinal fluid (CSF) pharmacokinetic properties (Example 4). The conditions noted are these: male, Sprague-Dawley. In kind it is in vivo. As to the method:
Protocol PK in rats was determined following oral dosing. For the oral (PO) experiments, a group of 6 male Sprague-Dawley rats with an indwelling catheter placed in the cistema magna were used. The PO group was dosed with 10 mg/kg or 1 mg/kg of a compound formulated as a solution in PEG400. PO doses were administered by oral gavage and delivered to the stomach using a syringe and gavage tube. Following oral dosage administration, the gavage tube was flushed with approximately 0.5 mL of water to ensure complete delivery of the full dose.
Plasma samples were collected as follows: samples of CSF and blood were collected at 1 hour, 2, and optionally at 4 hours post-dosing. CSF samples (0.05 mL) were collected through the intracisternal catheter. Blood samples (0.25 mL) were collected through retro-orbital sampling. These samples were kept on ice until processed for plasma. Blood samples were centrifuged at 3200 rpm for 5 minutes at approximately 5° C. within 1 hour of collection. Plasma was directly transferred to a 96-well plate tube (0.125 mL). Plug caps were placed on the tubes and the tubes frozen at approximately −70° C. and stored until analysis. Plasma was collected and analyzed for the presence of a compound.
Quantitation of Compounds. The compound in question and the internal standard were extracted from plasma and CSF by precipitation. Samples were analyzed using liquid chromatography (LC) with tandem mass spectrometric detection (MS/MS) using electrospray ionization. The standard curve range was from 1 to 1000 ng/mL. Results of the compounds described herein in this assay are illustrated in Table 4a below (10 mg/kg dose) and Tables 4b and 4c below (1 mg/kg).
Kp,uu is defined as the concentration ratio of unbound drug in CSF to unbound drug in plasma. Unbound drug in plasma (or free plasma concentration) is calculated by multiplying the total plasma concentration by the unbound fraction as determined by plasma protein binding. The CSF concentration is then divided by the free plasma concentration to determine the Kp,uu. (See e.g., Di et al., J. Med. Chem., 56, 2-12 (2013))

[2] abbreviates: 10 mg/kg PO, 1 h, unbound CSF/unbound plasma, read-out: Kp,uu (@ 1 h).
Where [3] appears, read: CSF, 10 mg/kg PO, 1 h, read-out: CSF Conc. (nM @ 1 h).

Read-outs that look alike come from different tables or passages of the source.

One may read the EC50 as the concentration at which the effect is half-maximal. For the compound `Fc1ccccc1Cc1nc(-c2nc(C(F)(F)F)n[nH]2)cn2ccnc12` [Compound I-1, 8-(2-fluorobenzyl)-6-(3-(trifluoromethyl)-1H-1,2,4-triazol-5-yl)imidazo[1,2-a]pyrazine], the EC50 is 100 to 1000 nM on sGC enzyme ([DETA-NO] 0 uM); 100 to 1000 nM on sGC enzyme ([DETA-NO] 1.11 uM); 100 to 1000 nM at sGC enzyme ([DETA-NO] 3.33 uM); 100 to 1000 nM at sGC enzyme ([DETA-NO] 10 uM); not above 100 nM at sGC enzyme ([DETA-NO] 30 uM). Moreover, the “synergy with NO to stimulate sGC” value on sGC enzyme (varied DETA-NO concentrations) is listed as “synergizes with NO”. Besides, the Kp uu at 1 h in data set [1] (setting [2]) turned out to be 0.9; in data set [1] (CSF / unbound plasma, 1 mg/kg PO, @ 1 h, read-out: Kp,uu), 1. In data set [1] (CSF / unbound plasma, 1 mg/kg PO, @ 2 h), this compound returned a Kp uu at 2 h of 1.4. The compound further registered a Kp uu at 4 h in data set [1] (CSF / unbound plasma, 1 mg/kg PO, @ 4 h) of 1.9. For the same compound, the concentration at 1 h in data set [1] (CSF, 1 mg/kg PO, @ 1 h, read-out: CSF Conc.) is 21 nM; in data set [1] (setting [3]) it was 210 nM. In addition, the concentration at 2 h in data set [1] (CSF, 1 mg/kg PO, @ 2 h, read-out: CSF Conc.) is 35 nM. Besides, the concentration at 4 h in data set [1] (CSF, 1 mg/kg PO, @ 4 h, read-out: CSF Conc.) amounted to 39 nM.
On to `Fc1cccc(Cc2nc(-c3nc(C(F)(F)F)n[nH]3)cn3ccnc23)c1` [Compound I-2, 8-(3-Fluorobenzyl)-6-(3-(trifluoromethyl)-1H-1,2,4-triazol-5-yl)imidazo[1,2-a]pyrazine], for which the Kp uu at 1 h in data set [1] (setting [2]) was found to be 0.9. Besides, in data set [1] (setting [3]), the concentration at 1 h is 59 nM.
On the same counts, the results for `Fc1ccccc1Cc1nc(-c2nc(C(F)(F)F)n[nH]2)cn2ncnc12` [Compound I-16, 8-(2-Fluorobenzyl)-6-(3-(trifluoromethyl)-1H-1,2,4-triazol-5-yl)-[1,2,4]triazolo[1,5-a]pyrazine] are 1.6 and 272 nM.
For `Fc1cccc(Cc2nc(-c3nc(C(F)(F)F)n[nH]3)cn3ccnc23)c1F` [Compound I-10, 8-(2,3-Difluorobenzyl)-6-(3-(trifluoromethyl)-1H-1,2,4-triazol-5-yl)imidazo[1,2-a]pyrazine] the same measures were 3.1 and 108 nM.
On the same counts, the results for `Fc1cccc(Cc2nc(-c3nc(C(F)F)n[nH]3)cn3ccnc23)c1` [Compound I-3, 6-(3-(Difluoromethyl)-1H-1,2,4-triazol-5-yl)-8-(3-fluorobenzyl)imidazo[1,2-a]pyrazine] are 0.8 and 6 nM.
For `Fc1cccc(Cc2nc(-c3nc(C(F)F)n[nH]3)cn3ccnc23)c1F` [Compound I-11, 8-(2,3-Difluorobenzyl)-6-(3-(difluoromethyl)-1H-1,2,4-triazol-5-yl)imidazo[1,2-a]pyrazine], the Kp uu at 1 h in data set [1] (setting [2]) came to 2.1. In addition, the concentration at 1 h in data set [1] (setting [3]) is 72 nM.
For `Fc1ccccc1Cc1nc(-c2nc(C(F)F)n[nH]2)cn2ccnc12` [Compound I-14, 8-(2-Fluorobenzyl)-6-(3-(difluoromethyl)-1H-1,2,4-triazol-5-yl)imidazo[1,2-a]pyrazine] the same measures were 1.7 and 284 nM.
